Values of other authors, collected in patent US6746697B2, “Composition containing Heliopsis longipes root extract and oral carrier” (Phytos, Inc., priority 2000, dated 2004).

Key:
mice = conditions: orally to mice
[1] = test system: certain microorganisms (Gram positive and Gram negative bacteria); conditions: purified affinin from ethanol extract; toxicity varying for Gram positive and Gram negative bacteria

C/C=C/C=C\CC/C=C/C(=O)NCC(C)C [affinin, N-isobutyl-2E, 6Z, 8E-decatrienamide]
analgesic effect (mice; aqueous solution, doses from 2.5 to 10.0 mg/kg): analgesic effect | deaths (mice; highest dose (10.0 mg/kg)): two out of five deaths | effect on normal motor activity (mice; highest dose (10.0 mg/kg)): severe depression of normal motor activity | toxicity to microorganisms [1]: toxic to certain microorganisms
